What was measured:
[1] = biological target: T1, I69E mutant yeast BC domain (Saccharomyces cerevisiae, UniProt Q00955, I69E); experiment: radioactive binding assay, I69E mutant; settings: up to 60 nM soraphen A, 10 nM protein, read-out: Kd (nM) (radiactive assay)
T1 construct: Residues 2-581 of yeast ACC were sub-cloned into the pET28a vector; made in house; host or cells: E. coli
Method: (§1) The mutants were designed based on the structural information and made with the QuikChange kit (Stratagene). The mutants were sequenced, expressed in E. coli, and purified following the same protocol as that for the wild-type BC domain. The affinity of soraphen for the mutants were assessed using a radioactive binding assay (Weatherly et al., supra (2004)).

[2] = biological target: T2, Wild-type yeast BC domain (Saccharomyces cerevisiae, UniProt Q00955); experiment: radioactive binding assay, wild-type yeast BC domain; settings: read-out: Kd (nM) (radiactive assay)
T2 construct: Residues 2-581 of yeast ACC were sub-cloned into the pET28a vector; made in house; host or cells: E. coli BL21(DE3) Rosetta
T2 sequence (Q00955 2-581): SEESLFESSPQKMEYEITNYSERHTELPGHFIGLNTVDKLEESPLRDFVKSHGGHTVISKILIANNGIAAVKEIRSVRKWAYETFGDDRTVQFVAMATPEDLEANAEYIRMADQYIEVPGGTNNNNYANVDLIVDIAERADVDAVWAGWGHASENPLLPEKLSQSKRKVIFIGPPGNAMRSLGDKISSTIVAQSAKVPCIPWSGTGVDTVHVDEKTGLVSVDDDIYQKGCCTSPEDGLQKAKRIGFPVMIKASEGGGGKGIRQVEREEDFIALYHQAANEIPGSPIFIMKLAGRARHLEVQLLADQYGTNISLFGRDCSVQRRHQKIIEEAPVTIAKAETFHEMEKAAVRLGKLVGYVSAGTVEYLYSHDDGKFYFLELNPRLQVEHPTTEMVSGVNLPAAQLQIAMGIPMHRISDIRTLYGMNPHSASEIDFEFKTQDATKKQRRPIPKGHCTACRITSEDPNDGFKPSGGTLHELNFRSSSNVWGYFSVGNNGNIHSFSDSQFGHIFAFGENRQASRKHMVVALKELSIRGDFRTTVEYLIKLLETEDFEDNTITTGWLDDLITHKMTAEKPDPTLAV
Method: as §1

[3] = biological target: T3, K73R mutant yeast BC domain (Saccharomyces cerevisiae, UniProt Q00955, K73R); experiment: fluorescence-based binding assay, K73R mutant
T3 construct: Residues 2-581 of yeast ACC were sub-cloned into the pET28a vector; made in house; host or cells: E. coli
T3 sequence (Q00955 2-581 K73R): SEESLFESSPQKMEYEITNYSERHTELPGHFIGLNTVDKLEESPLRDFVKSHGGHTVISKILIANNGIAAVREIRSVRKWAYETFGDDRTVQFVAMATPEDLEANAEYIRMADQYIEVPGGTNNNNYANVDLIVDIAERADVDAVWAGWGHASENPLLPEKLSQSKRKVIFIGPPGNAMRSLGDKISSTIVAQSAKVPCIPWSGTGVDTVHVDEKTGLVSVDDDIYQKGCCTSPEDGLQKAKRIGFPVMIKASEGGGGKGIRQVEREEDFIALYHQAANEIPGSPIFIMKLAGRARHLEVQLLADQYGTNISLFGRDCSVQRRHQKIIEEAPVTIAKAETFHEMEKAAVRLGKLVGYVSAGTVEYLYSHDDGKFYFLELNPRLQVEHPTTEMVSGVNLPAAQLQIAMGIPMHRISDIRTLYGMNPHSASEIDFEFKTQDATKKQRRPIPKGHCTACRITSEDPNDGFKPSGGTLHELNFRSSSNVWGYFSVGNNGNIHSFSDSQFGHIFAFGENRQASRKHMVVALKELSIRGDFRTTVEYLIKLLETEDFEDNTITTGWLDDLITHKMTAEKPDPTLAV
Method: (§2) We have developed a fluorescence-based binding assay using our structural information, which monitored the increase in Trp emission upon soraphen binding. The binding buffer initially contained 100 mM Tris (pH 8.0), 100 mM NaCl, and 50 nM wild-type or mutant enzyme, and increasing concentrations of soraphen A was titrated into the solution. The observed binding curve is fitted using conventional methods or the tight-binding model where appropriate.
(§3) We next developed a fluorescence-based binding assay using the structural information. […] There is also a slight blue shift in the fluorescence emission maximum upon soraphen binding. The observed increase in Trp fluorescence as a function of soraphen concentration can be easily fit to a one-site binding model (FIG. 5), confirming that there is a single binding site for soraphen in the BC domain. The binding affinity obtained from this fluorescence assay is generally in good agreement with that based on the radioactive binding assay (Table 3) (Weatherly et al., supra (2004)). Compared to the radioactive assay, the fluorescence assay has the advantage that it can measure affinity between 1 nM to 10 μM, whereas the radioactive assay is limited to Kd values […] ˜50 nM.

[4] = biological target: T4, S77Y mutant yeast BC domain (Saccharomyces cerevisiae, UniProt Q00955, S77Y); experiment: radioactive binding assay, S77Y mutant; settings: up to 60 nM soraphen A, 10 nM protein, read-out: Kd (nM) (radiactive assay)
T4 construct: Residues 2-581 of yeast ACC were sub-cloned into the pET28a vector; made in house; host or cells: E. coli
Method: as §1

[5] = biological target: T5, N485G mutant yeast BC domain (Saccharomyces cerevisiae, UniProt Q00955, N485G); experiment: fluorescence-based binding assay, N485G mutant; settings: 50 nM enzyme
T5 construct: Residues 2-581 of yeast ACC were sub-cloned into the pET28a vector; made in house; host or cells: E. coli
T5 sequence (Q00955 2-581 N485G): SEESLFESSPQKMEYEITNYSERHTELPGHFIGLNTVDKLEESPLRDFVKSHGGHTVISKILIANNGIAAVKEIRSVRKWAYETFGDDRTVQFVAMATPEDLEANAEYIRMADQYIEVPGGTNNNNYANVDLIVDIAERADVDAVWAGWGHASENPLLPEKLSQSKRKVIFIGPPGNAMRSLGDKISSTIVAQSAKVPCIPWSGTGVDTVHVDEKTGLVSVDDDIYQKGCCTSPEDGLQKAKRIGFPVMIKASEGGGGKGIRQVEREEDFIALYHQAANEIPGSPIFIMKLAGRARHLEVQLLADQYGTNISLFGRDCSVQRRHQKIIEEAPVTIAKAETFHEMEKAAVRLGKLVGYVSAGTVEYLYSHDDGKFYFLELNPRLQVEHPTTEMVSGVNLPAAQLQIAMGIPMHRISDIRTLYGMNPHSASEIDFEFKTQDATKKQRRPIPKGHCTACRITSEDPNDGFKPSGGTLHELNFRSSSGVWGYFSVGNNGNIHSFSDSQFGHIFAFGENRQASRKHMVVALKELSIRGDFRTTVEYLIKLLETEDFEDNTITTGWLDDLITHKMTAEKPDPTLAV
Method: as §2, §3

[6] = biological target: yeast ACC Ser77 to Tyr mutant (Saccharomyces cerevisiae, UniProt Q00955, S77Y); settings: yeast ACC with Ser77 mutated to Tyr, literature; cited from earlier work
[7] = biological target: T6, F510I mutant yeast BC domain (Saccharomyces cerevisiae, UniProt Q00955, F510I); experiment: radioactive binding assay, F510I mutant; settings: read-out: Kd (nM) (radiactive assay)
T6 construct: Residues 2-581 of yeast ACC were sub-cloned into the pET28a vector; made in house; host or cells: E. coli
T6 sequence (Q00955 2-581 F510I): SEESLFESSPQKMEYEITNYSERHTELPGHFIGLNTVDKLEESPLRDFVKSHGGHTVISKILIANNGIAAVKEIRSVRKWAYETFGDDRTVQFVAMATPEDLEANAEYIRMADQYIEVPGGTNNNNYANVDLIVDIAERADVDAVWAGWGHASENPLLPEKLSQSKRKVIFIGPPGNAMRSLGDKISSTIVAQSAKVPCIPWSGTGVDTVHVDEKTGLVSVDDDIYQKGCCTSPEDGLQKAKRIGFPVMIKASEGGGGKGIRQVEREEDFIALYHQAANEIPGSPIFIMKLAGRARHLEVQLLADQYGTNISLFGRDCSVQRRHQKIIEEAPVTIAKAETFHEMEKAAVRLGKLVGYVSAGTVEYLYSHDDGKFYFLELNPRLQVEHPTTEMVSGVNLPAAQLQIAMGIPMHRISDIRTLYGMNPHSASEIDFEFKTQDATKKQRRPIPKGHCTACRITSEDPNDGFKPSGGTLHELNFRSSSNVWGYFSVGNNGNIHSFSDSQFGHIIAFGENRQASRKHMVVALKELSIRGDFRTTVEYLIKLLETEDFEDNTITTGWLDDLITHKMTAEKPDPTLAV
Method: as §1

[8] = biological target: K73R mutation of yeast ACC (Saccharomyces cerevisiae, UniProt Q00955, K73R); settings: cited from earlier work
[9] = biological target: T5, N485G mutant yeast BC domain; experiment: radioactive binding assay, N485G mutant; settings: read-out: Kd (nM) (radiactive assay)
Method: as §1

[10] = biological target: T7, active site of yeast BC domain (Saccharomyces cerevisiae, UniProt Q00955); experiment: binding of fluorescent ATP analog (Mant-ATP) to active site; settings: preliminary experiments, unpublished data
T7 construct: Residues 2-581 of yeast ACC were sub-cloned into the pET28a vector; made in house; host or cells: E. coli BL21(DE3) Rosetta

[11] = biological target: T1, I69E mutant yeast BC domain; experiment: fluorescence-based binding assay, I69E mutant; settings: 50 nM enzyme
Method: as §2, §3

BC domain of human ACC1 = biological target: T8, BC domain of human ACC1 (Homo sapiens, UniProt Q13085); experiment: binding to BC domain of human ACC1 (unpublished results)
T8 construct: the BC domains of human ACC1 and ACC2

bacterial BC subunits = settings: literature; cited from earlier work
[12] = biological target: T9, W487R mutant yeast BC domain (Saccharomyces cerevisiae, UniProt Q00955, W487R); experiment: fluorescence-based binding assay, W487R mutant; settings: W487R mutant (data not shown)
T9 construct: Residues 2-581 of yeast ACC were sub-cloned into the pET28a vector; made in house; host or cells: E. coli
T9 sequence (Q00955 2-581 W487R): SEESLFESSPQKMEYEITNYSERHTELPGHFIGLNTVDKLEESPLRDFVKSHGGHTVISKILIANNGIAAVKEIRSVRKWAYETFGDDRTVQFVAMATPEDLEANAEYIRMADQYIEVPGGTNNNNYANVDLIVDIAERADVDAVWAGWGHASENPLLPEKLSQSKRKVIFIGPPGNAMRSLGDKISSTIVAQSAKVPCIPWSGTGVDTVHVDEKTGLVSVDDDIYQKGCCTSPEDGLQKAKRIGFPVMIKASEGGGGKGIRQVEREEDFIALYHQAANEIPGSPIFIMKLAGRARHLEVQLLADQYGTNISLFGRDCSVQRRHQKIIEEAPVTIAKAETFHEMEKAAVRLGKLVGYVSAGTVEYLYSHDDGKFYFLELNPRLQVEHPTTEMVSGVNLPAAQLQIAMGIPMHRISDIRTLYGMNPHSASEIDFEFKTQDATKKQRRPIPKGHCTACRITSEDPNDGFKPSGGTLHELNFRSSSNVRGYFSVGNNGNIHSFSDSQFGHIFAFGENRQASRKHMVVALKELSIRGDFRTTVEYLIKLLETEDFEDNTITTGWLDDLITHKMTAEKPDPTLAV
Method: as §2, §3

[13] = biological target: T10, E477R mutant yeast BC domain (Saccharomyces cerevisiae, UniProt Q00955, E477R); experiment: fluorescence-based binding assay, E477R mutant; settings: 50 nM enzyme
T10 construct: Residues 2-581 of yeast ACC were sub-cloned into the pET28a vector; made in house; host or cells: E. coli
T10 sequence (Q00955 2-581 E477R): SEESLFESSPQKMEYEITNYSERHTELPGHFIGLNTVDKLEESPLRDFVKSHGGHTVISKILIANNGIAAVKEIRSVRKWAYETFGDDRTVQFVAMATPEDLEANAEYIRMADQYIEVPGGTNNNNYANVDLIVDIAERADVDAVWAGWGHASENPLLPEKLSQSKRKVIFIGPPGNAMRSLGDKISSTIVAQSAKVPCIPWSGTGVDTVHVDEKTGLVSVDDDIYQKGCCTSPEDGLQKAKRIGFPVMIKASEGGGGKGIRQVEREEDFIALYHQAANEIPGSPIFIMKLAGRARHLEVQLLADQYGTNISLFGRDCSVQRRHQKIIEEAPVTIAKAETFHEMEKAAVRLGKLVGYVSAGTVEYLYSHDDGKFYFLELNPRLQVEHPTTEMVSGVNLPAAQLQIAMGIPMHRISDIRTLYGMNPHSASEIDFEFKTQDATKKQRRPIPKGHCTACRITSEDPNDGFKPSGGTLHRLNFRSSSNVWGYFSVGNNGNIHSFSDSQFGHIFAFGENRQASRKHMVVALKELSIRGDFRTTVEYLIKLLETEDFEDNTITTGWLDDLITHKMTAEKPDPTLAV
Method: as §2, §3

[14] = biological target: T2, Wild-type yeast BC domain; experiment: native gel electrophoresis assay, wild-type BC domain; settings: 12% native gel
Method: (§4) FIG. 7. […] Schematic drawing of the dimer of E. coli BC subunit in complex with ATP (Thoden et al., supra 2000). The dimer axis is indicated with the magenta oval. […] (B). Native gel (12%) showing the electrophoretic mobility of wild-type and K73R mutant of yeast BC domain in the absence or presence of soraphen. […] Each lane was loaded with 20 μg of protein in 10 μl.
(§5) To obtain experimental evidence for the effects of soraphen A on the oligomerization state of BC domains, we examined the mobility of the yeast BC domain in a native gel electrophoresis assay.

BC domain of human ACC2 = biological target: T11, BC domain of human ACC2 (Homo sapiens, UniProt O00763); experiment: binding to BC domain of human ACC2 (unpublished results)
T11 construct: the BC domains of human ACC1 and ACC2

[15] = biological target: T12, K73R mutant of the BC domain (Saccharomyces cerevisiae, UniProt Q00955, K73R); experiment: native gel electrophoresis assay, K73R mutant; settings: K73R mutant of yeast BC domain, 12% native gel
T12 construct: Residues 2-581 of yeast ACC were sub-cloned into the pET28a vector; made in house; host or cells: E. coli
T12 sequence (Q00955 2-581 K73R): as the sequence (Q00955 2-581 K73R) above
Method: as §4, §5

[16] = biological target: BC domain of eukaryotic ACCs; settings: literature; cited from earlier work
[17] = biological target: T9, W487R mutant yeast BC domain; experiment: radioactive binding assay, W487R mutant; settings: up to 60 nM soraphen A, 10 nM protein, read-out: Kd (nM) (radiactive assay)
Method: as §1

[18] = biological target: T10, E477R mutant yeast BC domain; experiment: radioactive binding assay, E477R mutant; settings: read-out: Kd (nM) (radiactive assay)
Method: as §1

ACC = settings: kinetic data, literature; cited from earlier work
[19] = biological target: T2, Wild-type yeast BC domain; experiment: fluorescence-based binding assay (Trp emission), wild-type; settings: 50 nM enzyme
Method: as §2, §3

[20] = biological target: T6, F510I mutant yeast BC domain; experiment: fluorescence-based binding assay, F510I mutant
Method: as §2, §3

[21] = biological target: T3, K73R mutant yeast BC domain; experiment: radioactive binding assay, K73R mutant; settings: up to 60 nM soraphen A, 10 nM protein, read-out: Kd (nM) (radiactive assay)
Method: as §1

[22] = literature SAR, in words; cited from earlier work

T1 sequence (Q00955 2-581 I69E): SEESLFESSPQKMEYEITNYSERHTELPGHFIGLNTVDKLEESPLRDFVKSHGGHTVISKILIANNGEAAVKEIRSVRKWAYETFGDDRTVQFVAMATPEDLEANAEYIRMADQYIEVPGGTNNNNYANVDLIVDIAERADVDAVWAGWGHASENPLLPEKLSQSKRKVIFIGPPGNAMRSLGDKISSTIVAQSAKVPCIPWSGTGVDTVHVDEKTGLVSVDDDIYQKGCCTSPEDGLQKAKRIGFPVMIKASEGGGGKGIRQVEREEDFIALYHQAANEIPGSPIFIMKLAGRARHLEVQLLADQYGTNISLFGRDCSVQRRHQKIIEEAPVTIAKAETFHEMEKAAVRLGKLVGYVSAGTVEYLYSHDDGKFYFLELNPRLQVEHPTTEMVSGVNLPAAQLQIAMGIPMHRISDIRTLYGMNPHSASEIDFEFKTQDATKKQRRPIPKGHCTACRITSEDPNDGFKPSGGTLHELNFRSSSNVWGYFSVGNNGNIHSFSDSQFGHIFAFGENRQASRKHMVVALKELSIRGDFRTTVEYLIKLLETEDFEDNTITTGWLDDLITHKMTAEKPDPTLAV

With `CO[C@H]1CCCC[C@@H](c2ccccc2)OC(=O)[C@@H](C)[C@@]2(O)O[C@H]([C@@H](C)[C@H](O)[C@H]2OC)[C@@H](C)/C=C/[C@H]1OC` [soraphen A] the Kd [1] was greater than 60 nM, the Kd [2] was 2 ± 0.9 nM and the “Kd (in words)” value ([3]; K73R mutant) was “micromolar range”. The “loss in affinity for soraphen” value ([3]; K73R mutant versus wild-type) was 500 fold, the Kd ([3]; K73R yeast BC domain, 50 nM enzyme) was 2010 ± 174 nM and the Kd [4] was greater than 60 nM. The Kd [5] was 55 ± 4 nM, the “sensitivity of the enzyme to soraphen A” value [6] was “insensitive” and the Kd [7] was 5.7 ± 1 nM. The “resistance to soraphen A” value [8] was “resistance”, the Kd [9] was 2.7 ± 0.4 nM and the “interference with the binding of Mant-ATP to the active site” value [10] was “does not interfere”. For the same molecule, the Kd [11] was 104 ± 18 nM, the Kd (BC domain of human ACC1) was roughly 1 nM and the “effect on bacterial BC subunits” value (bacterial BC subunits) was “no effect”. The “fluorescence change in the presence of soraphen” value [12] was “little fluorescence change”, the Kd [13] was 274 ± 30 nM and the “electrophoretic mobility in native gel in the presence of soraphen A” value [14] was “a sharp band is observed, with the fastest migrating speed”. The Kd (BC domain of human ACC2) was roughly 1 nM, the “electrophoretic mobility in native gel in the presence of soraphen A” value [15] was “not affected” and the Kd [16] was roughly 1 nM. For the same molecule, the Kd [17] was greater than 60 nM, the Kd [18] was 24.7 ± 10.4 nM and the “mode of inhibition with respect to the substrates of ACC” value (ACC) was “noncompetitive”. For the same molecule, the Kd [19] was 3.9 ± 0.7 nM, the “impact on the affinity for soraphen” value ([20]; F510I mutation versus wild-type) was “minor impact” and the Kd ([20]; F510I yeast BC domain, 50 nM enzyme) was 10.6 ± 4.8 nM. It also gave a Kd [21] greater than 60 nM.
For soraphen F, the “activity relative to soraphen A” value [22] is given as “moderate loss of activity”.
